Experimental data from the NIST ThermoML archive (doi:10.1021/acs.jced.7b00335).

Experiment: xn = mol fraction of the nth substance listed
Conditions: 100 kPa, Liquid; for viscosity: Concentric cylinders viscometry; for mass density: Vibrating tube method

O=Cc1ccccc1 [benzaldehyde] + CC(C)O
Conditions	mass density [kg/m3]	viscosity [mPa·s]
293.15 K, x1 = 0.0809	809.6	2.11
293.15 K, x1 = 0.1596	830.7	1.86
293.15 K, x1 = 0.24	852.5	1.675
293.15 K, x1 = 0.3492	882.3	1.499
293.15 K, x1 = 0.4399	906.4	1.42
293.15 K, x1 = 0.5693	940.8	1.402
293.15 K, x1 = 0.6495	962.2	1.414
293.15 K, x1 = 0.7399	986.2	1.434
293.15 K, x1 = 0.8498	1012.8	1.47
293.15 K, x1 = 0.9399	1033.3	1.502
293.15 K, x1 = 1	1046.3	1.52
298.15 K, x1 = 0.0809	804.3	1.82
298.15 K, x1 = 0.1596	826.4	1.63
298.15 K, x1 = 0.24	848.2	1.47
298.15 K, x1 = 0.3492	877.9	1.342
298.15 K, x1 = 0.4399	901.9	1.296
298.15 K, x1 = 0.5693	936.2	1.284
298.15 K, x1 = 0.6495	957.6	1.298
298.15 K, x1 = 0.7399	981.7	1.318
298.15 K, x1 = 0.8498	1008	1.354
298.15 K, x1 = 0.9399	1029	1.385
298.15 K, x1 = 1	1041.7	1.41
303.15 K, x1 = 0.0809	799.9	1.59
303.15 K, x1 = 0.1596	821.8	1.43
303.15 K, x1 = 0.24	843.7	1.33
303.15 K, x1 = 0.3492	873.4	1.233
303.15 K, x1 = 0.4399	897.4	1.197
303.15 K, x1 = 0.5693	931.7	1.187
303.15 K, x1 = 0.6495	953.1	1.196
303.15 K, x1 = 0.7399	976.7	1.216
303.15 K, x1 = 0.8498	1004.1	1.252
303.15 K, x1 = 0.9399	1024.1	1.286
303.15 K, x1 = 1	1037.1	1.31
308.15 K, x1 = 0.0809	795.6	1.41
308.15 K, x1 = 0.1596	817.6	1.29
308.15 K, x1 = 0.24	839.2	1.2
308.15 K, x1 = 0.3492	868.8	1.126
308.15 K, x1 = 0.4399	892.9	1.1
308.15 K, x1 = 0.5693	927.2	1.098
308.15 K, x1 = 0.6495	948.6	1.109
308.15 K, x1 = 0.7399	972.6	1.131
308.15 K, x1 = 0.8498	999.3	1.163
308.15 K, x1 = 0.9399	1019.7	1.197
308.15 K, x1 = 1	1032.4	1.22
313.15 K, x1 = 0.0809	791	1.23
313.15 K, x1 = 0.1596	813	1.14
313.15 K, x1 = 0.24	834.8	1.08
313.15 K, x1 = 0.3492	864.4	1.03
313.15 K, x1 = 0.4399	888.3	1.011
313.15 K, x1 = 0.5693	922.6	1.018
313.15 K, x1 = 0.6495	944	1.032
313.15 K, x1 = 0.7399	967	1.051
313.15 K, x1 = 0.8498	994.1	1.093
313.15 K, x1 = 0.9399	1014.6	1.124
313.15 K, x1 = 1	1027.9	1.15
318.15 K, x1 = 0.0809	786.7	1.08
318.15 K, x1 = 0.1596	808.6	1
318.15 K, x1 = 0.24	830.3	0.95
318.15 K, x1 = 0.3492	859.8	0.918
318.15 K, x1 = 0.4399	883.7	0.909
318.15 K, x1 = 0.5693	918	0.916
318.15 K, x1 = 0.6495	939.4	0.933
318.15 K, x1 = 0.7399	963.2	0.967
318.15 K, x1 = 0.8498	989.7	1.015
318.15 K, x1 = 0.9399	1010.8	1.058
318.15 K, x1 = 1	1023.4	1.09
323.15 K, x1 = 0.0809	782	0.97
323.15 K, x1 = 0.1596	803.7	0.913
323.15 K, x1 = 0.24	825.6	0.873
323.15 K, x1 = 0.3492	855.1	0.848
323.15 K, x1 = 0.4399	879.1	0.84
323.15 K, x1 = 0.5693	913.4	0.844
323.15 K, x1 = 0.6495	934.9	0.863
323.15 K, x1 = 0.7399	958.9	0.892
323.15 K, x1 = 0.8498	985	0.943
323.15 K, x1 = 0.9399	1006	0.991
323.15 K, x1 = 1	1019.1	1.03
